Source: US20210069173A1, “PREPARATION OF (-)-COCAINE HYDROCHLORIDE” (Cody Laboratories, Inc., priority 2018, published 2021)
Structures can show the parent of a compound that is named as a salt.

Assays:
[1] = system: mice; conditions: cited from earlier work
[2] = cited from earlier work
[3] = Distribution, metabolism and excretion of cocaine
[4] = system: mucous membranes; assay: Topical anesthesia of mucous membranes by pledget administration; type: in vivo, human; conditions: applied to mucous membranes by pledget, depends on concentration, vascularity
Experimental: When applied to mucous membranes by pledget administration, topical anesthesia develops rapidly and persists for 30 minutes or longer depending on the concentration of cocaine HCl solution used, the dose, and on the vascularity of the tissue.

[5] = system: experimental animals; conditions: cited from earlier work

For `COC(=O)[C@H]1[C@@H](OC(=O)c2ccccc2)C[C@@H]2CC[C@H]1N2C` [Cocaine, methyl (1R,2R,3S,5S)-3-(benzoyloxy)-8-methyl-8-azabicyclo[3.2.1]octane-2-carboxylate], the “potency in producing increases in locomotor activity” value ([1]; cocaine versus cocaethylene) is listed as “more potent than cocaethylene”, the “metabolism by hydrolysis to ecgonine” value ([2]; by carboxylesterase-2) is listed as “minimally metabolized” and the “fraction metabolized by hydrolysis to benzoylecgonine” value ([2]; by hepatic carboxylesterase-1) is listed as 40-45%. The “fraction metabolized by hydrolysis to ecgonine methyl ester” value ([2]; by plasma butyrylcholinesterase and hepatic carboxylesterase-2) was 40-45%, the “fraction N-demethylated to norcocaine” value ([2]; by the CYP3A4 enzyme system) was 5-10% and the volume of distribution ([2]; in vivo) was “approximately 2 L/kg”. The “fraction eliminated unchanged in the urine” value ([3]; human, urine) was under 5%.
For `COC(=O)[C@H]1[C@@H](OC(=O)c2ccccc2)C[C@@H]2CC[C@H]1N2C` [cocaine HCl, methyl (1R,2R,3S,5S)-3-(benzoyloxy)-8-methyl-8-azabicyclo[3.2.1]octane-2-carboxylate hydrochloride], the “persistence of topical anesthesia” value [4] was at least 30 min.
For `CCOC(=O)[C@H]1[C@@H](OC(=O)c2ccccc2)C[C@@H]2CC[C@H]1N2C` [ethyl cocaine, ethyl (1R,2R,3S,5S)-3-(benzoyloxy)-8-methyl-8-azabicyclo[3.2.1]octane-2-carboxylate], the “potency in producing convulsions” value ([1]; cocaine versus cocaethylene) is given as “equipotent”, the “potency in producing lethality” value ([1]; ethyl cocaine versus cocaine) is given as “more potent than cocaine” and the “elimination half-life (comparative)” value [5] is given as “longer elimination half-life”. For the same compound, the “volume of distribution (comparative)” value [5] was “larger volume of distribution” and the toxicity and arrhythmogenicity ([5]; versus cocaine or ethanol alone) was “more toxic and arrhythmogenic than either substance alone”.
In the case of `COC(=O)[C@H]1[C@@H](OC(=O)c2ccccc2)C[C@@H]2CC[C@H]1N2` [norcocaine], the “total systemic exposure relative to cocaine” value ([3]; in vivo) is reported as “less than one percent”.
